Measured values reported in US20060089395A1, “Nf-kb activation inhibitors” (priority 2002, published 2006).
Entries after “also recorded” stand apart in the source; their conditions may differ. Like-named read-outs stand apart in the source and are kept apart here.

Tests used:
Assay type in all cases: cell-based, human
IL-8 = assay: Inhibition of IL-8 production by TNFα stimulation in synovial fibroblasts derived from a rheumatoid patient (ELISA); conditions: for IC50: synovial fibroblasts, read-out: Inhibition against Mediator Release IC50(nM) IL-8; for inhibition at 1 µM: 1000 nM, in parentheses, read-out: Inhibitory ratios (%) at 1000 nM, IL-8
Procedure: (§1) Synovial fibroblasts (Human Synoviocyte (RA-Positive), Toyobo, T4040-05) were cultured for 3 days in a medium containing 10 ng/ml of TNFα and a test compound. IL-6 and IL-8 in the supernatant were measured by the ELISA method, and PGE2 (prostaglandin E2) was measured by the EIA method.

NF-κ B = assay: Inhibitory activity of NF-κ B activation, luciferase reporter assay in HepG2 under TNF-α stimulation; conditions: HepG2, TNF-α (40 ng/ml), 4 hours; for inhibition at 1 µg/mL / inhibition at 10 µg/mL: Homo sapiens; for Inhibitory Ratio of NF-κ B Activation(%) Drug Concentration 1 μg/mL / inhibition at 1 µg/mL: 1 μg/mL; for inhibition at 1 µg/mL: read-out: Inhibitory Ratio of NF-κ B Activation(%) Drug Concentration 1 μg/mL; for Inhibitory Ratio of NF-κ B Activation(%) Drug Concentration 10 μg/mL / inhibition at 10 µg/mL: 10 μg/mL; for inhibition at 10 µg/mL: read-out: Inhibitory Ratio of NF-κ B Activation(%) Drug Concentration 10 μg/mL
Outline: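 Readout is firefly luciferase luminescence, expressed as inhibition versus compound-free wells. Before this, HepG2 cells carrying a transiently transfected 5×NF-κB-site luciferase plasmid (6–24 h post-transfection) received test compound plus TNF-α (40 ng/ml) for 4 h.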

PGE2 = assay: Inhibition of PGE2 production by TNFα stimulation in synovial fibroblasts derived from a rheumatoid patient (EIA); conditions: for IC50: synovial fibroblasts, read-out: Inhibition against Mediator Release IC50(nM) PGE2; for Inhibitory ratios (%) at 1000 nM, PGE2: in parentheses
Procedure: as §1

IL-6 = assay: Inhibition of IL-6 production by TNFα stimulation in synovial fibroblasts derived from a rheumatoid patient (ELISA); conditions: for IC50: synovial fibroblasts, read-out: Inhibition against Mediator Release IC50(nM) IL-6; for Inhibitory ratios (%) at 1000 nM, IL-6: in parentheses
Procedure: as §1

[1] = Homo sapiens, Fibroblast, comparison compounds, TNFα stimulation
[2] = Homo sapiens, Fibroblast, 72 h, 10 ng/ml TNFα, 3 days
[3] = rheumatic patient-derived synovial fibroblasts under TNFα stimulation

Structure (SMILES)	Inhibitory Ratio of NF-κ B Activation(%) Drug Concentration 1 μg/mL (NF-κ B) [%]	Inhibitory Ratio of NF-κ B Activation(%) Drug Concentration 10 μg/mL (NF-κ B) [%]	inhibition at 1 µM (IL-8; Homo sapiens, Fibroblast, 72 h) [%]	IC50 (IL-8; [1]) [nM]	IC50 (PGE2; [1]) [nM]	IC50 (IL-6; [1]) [nM]	other results
O=C(Nc1cc(C(F)(F)F)cc(C(F)(F)F)c1)c1c(O)cccc1F [Compound No. 63]	85.4	85.0	–	–	–	–	IC50 (IL-8; 10 ng/ml TNFα, 3 days): 786 nM; IC50 (PGE2; 10 ng/ml TNFα, 3 days): 439 nM; IC50 (IL-6; 10 ng/ml TNFα, 3 days): 513 nM
O=C(Nc1ccc(Cl)cc1C(F)(F)F)c1cc(Cl)ccc1O [Reference Example 3, N-[4-chloro-2-(trifluoromethyl)phenyl]-5-chloro-2-hydroxybenzamide, reference compound]	–	–	-43	> 1000	> 1000	> 1000	Inhibitory ratios (%) at 1000 nM, PGE2 (PGE2): 20%; Inhibitory ratios (%) at 1000 nM, IL-6 (IL-6): −17%
O=C(Nc1ccc(C(F)(F)F)cc1)c1cc(Cl)ccc1O [Reference Example 6, N-[4-(trifluoromethyl)phenyl]-5-chloro-2-hydroxybenzamide, reference compound]	–	–	4.2	> 1000	> 1000	> 1000	Inhibitory ratios (%) at 1000 nM, PGE2 (PGE2): −24%; Inhibitory ratios (%) at 1000 nM, IL-6 (IL-6): 36%
O=C(Nc1ccc(F)cc1F)c1cc(I)ccc1O [reference compound]	–	–	-23	> 1000	730	85	–
O=C(Nc1ccc(-c2ccccc2)cc1)c1cc(C(F)(F)F)ccc1O [reference compound]	–	–	-67	> 1000	292	140	–
O=C(Nc1cccc(C(F)(F)F)c1)c1cc(Br)ccc1O [Reference Example 4, N-[3-(trifluoromethyl)phenyl]-5-bromo-2-hydroxybenzamide, reference compound]	–	–	16	> 1000	413	690	–
CC(=O)c1ccc(NC(=O)c2cc(I)ccc2O)cc1 [reference compound]	–	–	-5.9	> 1000	> 1000	82	Inhibitory ratios (%) at 1000 nM, PGE2 (PGE2): −3.9%
O=C(Nc1ccccc1C(F)(F)F)c1cc(Cl)ccc1O [Reference Example 2, N-[2-(trifluoromethyl)phenyl]-5-chloro-2-hydroxybenzamide, reference compound]	–	–	14	> 1000	676	887	–
O=C(Nc1cc(C(F)(F)F)cc(C(F)(F)F)c1)c1cc(C#Cc2ccccc2)ccc1O [Compound No. 22, N-[3,5-bis(trifluoromethyl)phenyl]-2-hydroxy-5-(phenylethynyl)-benzamide]	–	–	–	–	–	–	IC50 (IL-8; [2]): 869 nM; inhibition at 1 µg/mL (NF-κ B): 83.9%; inhibition at 10 µg/mL (NF-κ B): 97.1%; IC50 (IL-6; [2]): 665 nM
O=C(Nc1cc(C(F)(F)F)cc(C(F)(F)F)c1)c1cc(C(F)(F)F)ccc1O [Compound No. 25]	96.4	99.6	–	–	–	–	IC50 (IL-6; 10 ng/ml TNFα, 3 days): 452 nM
O=C(Nc1ccc(C(F)(F)F)cc1Cl)c1cc(Br)ccc1O [Reference Example 7, N-[2-chloro-4-(trifluoromethyl)phenyl]-5-bromo-2-hydroxybenzamide, reference compound]	–	–	16	> 1000	> 1000	> 1000	Inhibitory ratios (%) at 1000 nM, PGE2 (PGE2): 10%; Inhibitory ratios (%) at 1000 nM, IL-6 (IL-6): 27%
O=C(Nc1cc(Br)cc(C(F)(F)F)c1)c1cc(Br)ccc1O [Compound No. 86]	96.7	98.7	–	–	–	–	IC50 (PGE2; 10 ng/ml TNFα, 3 days): 562 nM; IC50 (IL-6; 10 ng/ml TNFα, 3 days): 565 nM
COc1ccc(C(F)(F)F)cc1NC(=O)c1cc(Br)ccc1O [Compound No. 94]	76.6	93.4	–	–	–	–	IC50 (PGE2; 10 ng/ml TNFα, 3 days): 266 nM
O=C(Nc1cc(C(F)(F)F)cc(C(F)(F)F)c1)c1cc(-n2cccc2)ccc1O [Compound No. 27]	93.8	97.9	–	–	–	–	IC50 (IL-8; 10 ng/ml TNFα, 3 days): 527 nM; IC50 (PGE2; 10 ng/ml TNFα, 3 days): 532 nM; IC50 (IL-6; 10 ng/ml TNFα, 3 days): 355 nM
O=C(Nc1cc(C(F)(F)F)cc(C(F)(F)F)c1)c1c(O)ccc2ccccc12 [Compound No. 73]	93.1	97.9	–	–	–	–	IC50 (IL-8; 10 ng/ml TNFα, 3 days): 670 nM; IC50 (PGE2; 10 ng/ml TNFα, 3 days): 662 nM; IC50 (IL-6; 10 ng/ml TNFα, 3 days): 337 nM
COc1ccc(C(C)(C)C)cc1NC(=O)c1cc(Cl)ccc1O [Compound No. 135, 5-chloro-N-{5-[(1,1-dimethyl)ethyl]-2-methoxyphenyl}-2-hydroxybenzamide]	–	–	–	–	–	–	inhibition of the production of IL-8 (in words) (IL-8; [3]): potently inhibited; also recorded: strongly inhibited; inhibition at 1 µg/mL (NF-κ B): 86.2%; inhibition at 10 µg/mL (NF-κ B): 99.2%; IC50 (PGE2; [2]): 41 nM; inhibition of the production of PGE2 (in words) (PGE2; [3]): potently inhibited; also recorded: strongly inhibited; IC50 (IL-6; [2]): 61 nM; inhibition of the production of IL-6 (in words) (IL-6; [3]): potently inhibited; also recorded: strongly inhibited
O=C(Nc1nc(C(F)(F)F)c(Br)s1)c1cc(Br)ccc1O [Compound No. 187]	85.3	94.4	–	–	–	–	IC50 (PGE2; 10 ng/ml TNFα, 3 days): 414 nM; IC50 (IL-6; 10 ng/ml TNFα, 3 days): 649 nM
O=C(Nc1ccc(Cl)c(C(F)(F)F)c1)c1cc(Br)ccc1O [Reference Example 5, N-[4-chloro-3-(trifluoromethyl)phenyl]-5-bromo-2-hydroxybenzamide, reference compound]	–	–	16	> 1000	57	91	–
O=C(Nc1cc(C(F)(F)F)cc(C(F)(F)F)c1)c1cc(CCc2ccccc2)ccc1O [Compound No. 24]	92.3	98.3	–	–	–	–	IC50 (IL-6; 10 ng/ml TNFα, 3 days): 593 nM
O=C(Nc1ccc(Cl)c(Cl)c1)c1cc(Br)ccc1O [drawing 563, reference compound]	–	–	-12	> 1000	208	205	–
O=C(Nc1cc(Cl)cc(Cl)c1)c1cc(Cl)ccc1O [Compound No. 125]	84.5	96.8	–	–	–	–	IC50 (PGE2; 10 ng/ml TNFα, 3 days): 966 nM; IC50 (IL-6; 10 ng/ml TNFα, 3 days): 903 nM
O=C(Nc1ccc(F)cc1F)c1cc([N+](=O)[O-])ccc1O [drawing 564, reference compound]	–	–	-4.5	> 1000	62	248	–
O=C(Nc1ccc(C(F)(F)F)cc1C(F)(F)F)c1cc(Cl)ccc1O [Reference Example 1, N-[2,4-bis(trifluoromethyl)phenyl]-5-chloro-2-hydroxybenzamide, reference compound]	–	–	-70	> 1000	> 1000	202	Inhibitory ratios (%) at 1000 nM, PGE2 (PGE2): 1.2%
CC(C)(C)c1nc(NC(=O)c2cc(Br)ccc2O)sc1C#N [Compound No. 189]	20.0	93.8	–	–	–	–	–
O=C(Nc1cc(C(F)(F)F)cc(C(F)(F)F)c1)c1cc(S(=O)(=O)Nc2cc(C(F)(F)F)cc(C(F)(F)F)c2)ccc1Cl [Compound No. 247]	–	>99.9	–	–	–	–	–
O=C(Nc1nc(-c2ccc(Cl)cc2Cl)cs1)c1cc(Cl)ccc1O [Compound No. 255, 5-Chloro-2-hydroxy-N-[4-(2,4-dichlorophenyl)thiazol-2-yl]benzamide]	–	–	–	–	–	–	inhibition at 1 µg/mL (NF-κ B): > 99.9%
O=C(Nc1cc(C(F)(F)F)cc(C(F)(F)F)c1)c1scc(Br)c1O [Compound No. 74, 4-Bromo-3-hydroxy-N-[3,5-bis(trifluoromethyl)phenyl]thiophene-2-carboxamide]	–	–	–	–	–	–	inhibition at 1 µg/mL (NF-κ B): 64%; inhibition at 10 µg/mL (NF-κ B): 97.5%
